The supplement of paper PMC10307832

Key:
Test in all cases: relative viability (nuclei count vs DMSO), 5 days (fraction); higher = more cells survive
Darinaparsin + Dasatinib = compound: C[As](C)SC[C@H](NC(=O)CC[C@H](N)C(=O)O)C(=O)NCC(=O)O [Darinaparsin] + Cc1nc(Nc2ncc(C(=O)Nc3c(C)cccc3Cl)s2)cc(N2CCN(CCO)CC2)n1 [Dasatinib] (partner 0.075 µM)
In short: (§1)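 Relative viability divides the nuclei count in treated wells by that in vehicle wells. Lung cancer cell lines were seeded in 1536-well plates, dosed by pin tool the next day, and fixed and stained after 5 days in one step with final 0.05% Triton X-100, 1% formaldehyde and 1 ug/ml Hoechst. Dosing was a single drug or a fixed anchor-drug dose plus five library-drug doses (not always all listed) in √10 steps, and values are medians of duplicate plates imaged at 4×.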

QS11 + Pictilisib = compound: C1CC2=C(C1)C=C(C=C2)OC3=NC(=C4C(=N3)N(C=N4)CC5=CC=C(C=C5)C6=CC=CC=C6)N[C@@H](CC7=CC=CC=C7)CO [QS11] + CS(=O)(=O)N1CCN(Cc2cc3nc(-c4cccc5[nH]ncc45)nc(N4CCOCC4)c3s2)CC1 [Pictilisib] (partner 1 µM)
In short: as §1

QS11 + Lapatinib = compound: C1CC2=C(C1)C=C(C=C2)OC3=NC(=C4C(=N3)N(C=N4)CC5=CC=C(C=C5)C6=CC=CC=C6)N[C@@H](CC7=CC=CC=C7)CO [QS11] + CS(=O)(=O)CCNCc1ccc(-c2ccc3ncnc(Nc4ccc(OCc5cccc(F)c5)c(Cl)c4)c3c2)o1 [Lapatinib] (partner 2 µM)
In short: as §1

AZ628 + Bortezomib = compound: CC1=C(C=C(C=C1)NC(=O)C2=CC(=CC=C2)C(C)(C)C#N)NC3=CC4=C(C=C3)N=CN(C4=O)C [AZ628] + CC(C)C[C@H](NC(=O)[C@H](Cc1ccccc1)NC(=O)c1cnccn1)B(O)O [Bortezomib] (partner 0.002 µM)
In short: as §1

## LCLC-97TM1
Darinaparsin + Dasatinib; first compound 0.08 µM
  relative viability: 0.922
Darinaparsin + Dasatinib; first compound 0.8 µM
  relative viability: 0.664
Darinaparsin + Dasatinib; first compound 2.53 µM
  relative viability: 0.615
Darinaparsin + Dasatinib; first compound 8 µM
  relative viability: 0.98
QS11 + Pictilisib; first compound 0.08 µM
  relative viability: 0.14
QS11 + Pictilisib; first compound 0.253 µM
  relative viability: 0.193
QS11 + Pictilisib; first compound 0.8 µM
  relative viability: 0.209
QS11 + Pictilisib; first compound 2.53 µM
  relative viability: 0.302
QS11 + Pictilisib; first compound 8 µM
  relative viability: 0.289
QS11 + Lapatinib; first compound 0.08 µM
  relative viability: 0.484
QS11 + Lapatinib; first compound 0.253 µM
  relative viability: 1.12
QS11 + Lapatinib; first compound 0.8 µM
  relative viability: 0.96
QS11 + Lapatinib; first compound 2.53 µM
  relative viability: 1.24
QS11 + Lapatinib; first compound 8 µM
  relative viability: 0.673
AZ628 + Bortezomib; first compound 0.08 µM
  relative viability: 0.643
AZ628 + Bortezomib; first compound 0.253 µM
  relative viability: 0.381
AZ628 + Bortezomib; first compound 0.8 µM
  relative viability: 0.199
AZ628 + Bortezomib; first compound 2.53 µM
  relative viability: 0.522
AZ628 + Bortezomib; first compound 8 µM
  relative viability: 0.108
